Measured values taken from patent US11773381B2, “Cell penetrating peptide, conjugate comprising same, and composition comprising conjugate” (GemVax & KAEL CO., LTD., priority 2012, dated 2023).

Test system: HeLa cell
Test: Cell penetration of pep(CPP)-FITC conjugates in HeLa cell line, flow cytometry (FACS)
Format: cell-based, Homo sapiens
Settings: HeLa cells, 20 μM of each carrier peptide combined with FITC, 37° C. for an hour, control cells treated only FITC
Experimental: Homo sapiens cervix adenocarcinoma cell line as HeLa cell lines were purchased from ATCC (American Type Cell Culture). The cells were cultured in MEM supplemented with 10% fetal bovine serum (Invitrogen, USA), Earle's salts, non-essential amino acids, sodium pyruvate and 100 μg/ml penicillin and 10 units/ml streptomycin and cultured at 37° C., 5% CO2 incubator.
Flow cytometry and Confocal microscope analysis were performed to compare the between degree of cellular uptake of the cells were treated with SEQ ID NO: 1 to SEQ ID NO: 156, pep (CPP) and control.
The cell line was divided in a 6-well plate and cultured in a medium containing 10% fetal bovine serum (Invitrogen, USA), […] at 37° C., 5% CO2 incubator for 12 hours. After washing the cell line with PBS, starvation was induced in a Minimum Essential Medium for an hour. 20 μM of each carrier peptide was treated and cultured at 37° C. for an hour. After repeating the step of washing the cells with PBS for three times, Trypsin-EDTA was treated form 10 mins at 37° C. to separate the carrier peptide on the outside of the cell. cells were collected with refrigerated PBS and centrifugation was performed to repeat the step of washing the cells for three times. After then, the cells were suspended in 0.5 ml of PBS containing 4% Paraformaldehyde and fluorescence of the cells was analyzed using FACS Calibur (Becton Dickinson). The cellular uptake aspect of control and various peptides combined with FITC was compared and analyzed by MFI (Mean Fluorescence Intensity).
Analysis results shown in FIG. 1 to FIG. 23 are given in detail in Table 3 below.

Sequence | cellular uptake, MFI (Mean Fluorescence Intensity)
ALFSVLNYE (listed as Homo sapiens) [pep29] | 33.5 ± 2.48
SVLGLDDIH (listed as Homo sapiens) [pep31] | 14.93 ± 2.05
RPSLTGARRLVETIFLGSRP (listed as Homo sapiens) [pep125] | 28.62 ± 2.12
LSEAEVRQHREARPALLTSR (listed as Homo sapiens) [pep80] | 12.45 ± 0.46
ATQARPPPHASGPRRRLGCE (listed as Homo sapiens) [pep59] | 18.58 ± 0.52
RGKSYVQCQGIPQGSILSTL (listed as Homo sapiens) [pep91] | 24.41 ± 2.79
LRRVGDDVLVHLIARCALFV (LRRVGDDVLVHLLARCALFV; listed as Homo sapiens) [pep57] | 568.02 ± 3.01
RTFVLRVRAQDPPPE (listed as Homo sapiens) [pep8] | 17.75 ± 1.96
DEALGGTAFVQMPAHGLFPW (listed as Homo sapiens) [pep153] | 31.72 ± 1.74
ERARRPGLL (listed as Homo sapiens) [pep22] | 13.56 ± 0.23
LDDIHRAWRTFVLRV (listed as Homo sapiens) [pep45] | 203.77 ± 3.26
GARTFRREKRAERLTSRVKA (listed as Homo sapiens) [pep82] | 22.44 ± 3.32
RFHACVLQLPFHQQVWKNPT (listed as Homo sapiens) [pep158] | 87.75 ± 2.51
FIPKPDGLRPIVNMD (listed as Homo sapiens) [pep42] | 20.82 ± 1.93
RLTSRVKAL (listed as Homo sapiens) [pep7] | 9.51 ± 2.95
LLVTPHLTHAKTFLRLTVRG (LLVTPHLTHAKTFLRTLVRG; listed as Homo sapiens) [pep151] | 23.52 ± 0.56
RRPGLLGASVLGLDDIHRAW (listed as Homo sapiens) [pep141] | 20.89 ± 0.31
SGPRRRLGCERAWNHSVREA (listed as Homo sapiens) [pep117] | 23.11 ± 2.46
LKRVQLRELSEAEVRQ (listed as Homo sapiens) [pep49] | 13.91 ± 0.51
SLCYSILKAKNAGMSLGAKG (listed as Homo sapiens) [pep102] | 45.84 ± 1.58
SVLGLDDIHR (listed as Homo sapiens) [pep17] | 15.26 ± 2.23
RAWNHSVREAGVPLGLPAPG (listed as Homo sapiens) [pep60] | 15.79 ± 1.63

Sequence | cellular uptake, MFI (Mean Fluorescence Intensity)
LFFYRKSVWSKLQSI [pep38] | 380.4 ± 2.6
RQHHAGPPSTSRPPRPWDTP (listed as Homo sapiens) [pep65] | 12.72 ± 1.36
LGPQGWRLVQRGDPAAFRAL (listed as Homo sapiens) [pep109] | 12.46 ± 1.32
VLGLDDIHR (listed as Homo sapiens) [pep23] | 15.68 ± 2.03
DARPPPAAPSFRQVSCLKEL (listed as Homo sapiens) [pep53] | 16.16 ± 0.66
RLVPPGLWGSRHNERRFLRN (listed as Homo sapiens) [pep131] | 32.51 ± 2.38
GAAPEPERTPVGQGSWAHPG (listed as Homo sapiens) [pep62] | 14.55 ± 3.71
SVLNYERARR (listed as Homo sapiens) [pep16] | 20.12 ± 1.84
SHVSTLTDLQPYMRQFVAHL (listed as Homo sapiens) [pep88] | 16.43 ± 0.55
LVAPSCAYWVCGPPLYQLGA (LVAPSCAYQVCGPPLYQLGA; listed as Homo sapiens) [pep58] | 19.87 ± 0.94
AERLTSRVKALFSVL (listed as Homo sapiens) [pep10] | 559.78 ± 3.41
EDTDPRRLVQLLRQHSSPWQ (listed as Homo sapiens) [pep72] | 17.57 ± 2.31
MPRAPRCRAV (listed as Homo sapiens) [pep107] | 23.11 ± 0.56
PAAGVCAREKPQGSVAAPEE (listed as Homo sapiens) [pep71] | 16.61 ± 0.88
GLLGASVLGL (listed as Homo sapiens) [pep4] | 28.35 ± 2.54
AAEHRLREEILAKFLHWLMS (listed as Homo sapiens) [pep134] | 78.05 ± 2.26
ALLTSRLRFI (listed as Homo sapiens) [pep5] | 19.06 ± 1.33
WSKLQSIGIRQHLKRVQLRE (listed as Homo sapiens) [pep79] | 31.2 ± 1.52
ALFSVLNYER (listed as Homo sapiens) [pep15] | 35.61 ± 1.29
AHGHVRKAFKSHVSTLTDLQ (listed as Homo sapiens) [pep145] | 11.97 ± 0.78
RPALLTSRLRFIPKP (listed as Homo sapiens) [pep41] | 28.97 ± 3.44
GLLGASVLG (listed as Homo sapiens) [pep30] | 14.37 ± 1.73

Sequence | cellular uptake, MFI (Mean Fluorescence Intensity)
RTRGPSDRGFCVVSPARPAE (listed as Homo sapiens) [pep63] | 21.3 ± 1.55
EAEVRQHREARPALL (listed as Homo sapiens) [pep40] | 11.63 ± 1.11
CGPPLYQLGAATQARPPPHA (listed as Homo sapiens) [pep116] | 20.5 ± 0.97
VLNYERARR (listed as Homo sapiens) [pep25] | 18.62 ± 0.69
GLLGASVL (listed as Homo sapiens) [pep34] | 14.41 ± 3.44
VETIFLGSRPWMPGTPRRLP (listed as Homo sapiens) [pep68] | 27.28 ± 1.28
LGASVLGL (listed as Homo sapiens) [pep36] | 15.37 ± 2.65
KSVWSKLQSIGIRQH (listed as Homo sapiens) [pep48] | 26.51 ± 2.36
FVLRVRAQDPPPELY (listed as Homo sapiens) [pep46] | 24.67 ± 2.02
VLPLATFVRRLGPQGWRLVQ (listed as Homo sapiens) [pep51] | 59.81 ± 1.38
RPALLTSRL (listed as Homo sapiens) [pep6] | 15.81 ± 1.59
LLGASVLGL (listed as Homo sapiens) [pep12] | 22 ± 2.6
PPEAFTTSVRSYLPNTVTDA (listed as Homo sapiens) [pep113] | 16.09 ± 2.5
VTETTFQKNRLFFYR (listed as Homo sapiens) [pep37] | 20.81 ± 1.02
YERARRPGL (listed as Homo sapiens) [pep11] | 10.46 ± 1.99
CPPVYAETKHFLYSSGDKEQ (listed as Homo sapiens) [pep66] | 20.7 ± 2.57
RGDPAAFRALVAQCLVCVPW (listed as Homo sapiens) [pep52] | 16.67 ± 2.22
KLTRHRVTYVPLLGSLRTAQ (listed as Homo sapiens) [pep104] | 36.74 ± 1.11
KMSVRDCAWLRRSPGVGCVP (listed as Homo sapiens) [pep133] | 46.79 ± 1.92
RTFRREKRAERLTSR (listed as Homo sapiens) [pep43] | 29.88 ± 2.35
